In patent EP0960886B1, “Peptide T and related peptides in the treatment of inflammation, including multiple sclerosis” (priority 1992, dated 1993):

Columns and labels:
[1] = system: human monocyte chemotaxis; conditions: cited from earlier work
[2] = Health-related quality of life and symptom assessment in MS patients (MS-modified MOS-HIV, PGWB, MS Symptom Checklist); type: in vivo, human
Source text: To evaluate the impact of drug-related change on overall health and symptom burden, MS patients were followed routinely with both recognized and newly developed health-related quality of life instruments: an MS-modified version of the 30-item Medical Outcomes Study-HIV Survey (MOS-HIV) originally developed by Dr. Albert Wu, the 22-item Psychological General Well-Being Schedule (PGWB) developed by Dr. Harold Dupuy, and the MS Symptom Checklist developed for this study. These instruments, of which the first two have previously been validated and shown to be responsive to change in other disease states, allow quantitation of self-reported symptom variation (see Brook et al., Medical Care 17(7 Suppl.) 1-54 (1979), Fazio "A Concurrent Validation Survey of the NCHS General Well-Being Schedule", US Dept of Health, Education and Welfare, National Center for Health Statistics, Hyattsville, Maryland, USA 1977, McDowell and Newell "Measuring Health: A Guide to Rating Scales and Questionnaires", Oxford University Press 1987, Stewart et al., Medical Care 26 724-35 (1988), JAMA 262 907-13 (1989), and "Measuring Functioning and Well-Being of Patients with Chronic Conditions: The Medical Outcomes Study Approach", Duke University Press 1992, Wachtel et al., Ann. Int. Med. 116 129-137 (1992), Ware et al., "Conceptualization and Measurement of Health for Adults in the Health Insurance Survey, Vol III: Mental Health", Rand Corporation 1979, and Wu et al., Medical Care 29(8) 786-98 (1991)).
Given the small number of patients involved in this report, some of whom received Peptide T in an on-off-on design, it would not be expected that statistical significance might be obtained. To facilitate establishment of any trends, three patients who stopped taking Peptide T and then restarted the drug some weeks later after a new baseline period appear twice in the following analysis. In this manner, 8 baseline and repeated measures (at weeks 0, 4, 8, and 12) were defined and analysed using two-tailed paired t-tests: see Table XIV.

[3] = Pharmacokinetics of Peptide T in vivo; conditions: following administration in vivo
[4] = system: mouse foetal hippocampal neurons; conditions: cited from earlier work
[5] = Treatment of multiple sclerosis patients, case reports (Examples 1 to 4); type: in vivo, human
Method: […] They were treated with prednisone and later with physiotherapy, with little effect. […] Tone was increased in both lower limbs and they had bilateral ankle clonus. Deep tendon reflexes were 2+ in the arms, 3+ in both knees and ankles and the plantar responses were extensor.
They were started on Peptide T, 8.5 mg subcutaneously daily. […] Their frequency of nocturia was reduced, fine motor control improved, stuttering decreased, their legs were less spastic and they could stand with minimal support. […] The patient has remained stable rather than following their normal progressive downhill course for the months they have remained on Peptide T.
A person was diagnosed with optic neuritis secondary to multiple sclerosis after presenting with numbness, impaired motor function, and blurred vision (20/300 bilaterally). Their somatic neurological examination was within normal limits. Minor episodes of numbness and impaired speech, balance and co-ordination had occurred over 6 months, as well as headache and loss of vision.
Peptide T therapy was started.
A person with their first episode of multiple sclerosis as manifest by optic neuritis and complete blindness in the right eye for 2 weeks, numbness in their right leg and then both legs. […] They had worsening of their ataxias with blurred vision and oscillopsia and was given prednisone 80 mg per day. […] Findings were typical of demyelination consistent with MS. […] The tone was increased in their lower limbs and they had non-sustained ankle clonus bilaterally. Their knee jerk was increased on the right compared to the left. Plantar responses were both upgoing. They had decreased position, vibration, light touch and cold sensation in the feet compared to the hands.
About 2 months later the patient was started on Peptide T 8.5 mg subcutaneously daily. […] They experienced improved feelings in their fingers, fine movements of their hands and improved cognitive function.
A person with a history of dizziness, ataxia, episodes of vertigo, impairment of motor function and generalised weakness of the legs was treated with dilantin and admitted to hospital. […] They were reassessed about 2 years later for episodes of dizziness, and complaints of leg spasms. […] Plantar response was downgoing and they had upwards gaze vertical nystagmus as previously noted.

[6] = system: Molt-4 cells; experiment: PBMC mediated killing of Molt-4 cells; type: cell-based, human; conditions: Peptide T added on the first day of a four day culture
Source text: When PBMC are mixed with allogeneic Molt-4 cells the growth of Molt-4 is inhibited (Figure 6). Alloreactive PBMC recognise Molt-4 as foreign and generate cytotoxic effector cells that kill Molt-4. Molt-4 is not a cytotoxic cell line and can not generate alloreactive effector cells. […] It is not possible to distinguish growth of alloreactive T cells from the growth of Molt-4 survivors since neither the growth of alloreactive T cells (Figure 5) nor the growth of Molt-4 (Table IX) would be affected by Peptide T.

[7] = system: PBMC; experiment: Antigen (measles, mumps and rubella vaccine) induced PBMC proliferation (Example 11); type: cell-based, human; conditions: without Peptide T 3.26 ± 0.55
Method: PBMC were incubated as described in relation to Table III in Example 9 in the presence of live, attenuated measles, mumps and rubella vaccine (Merck Sharp and Dohme, Canada) at a final dilution of 1:20. Peptide T was added either on day 1 of incubation or on a daily basis. Results are expressed as a proliferation index ± standard deviation.

[8] = system: Molt-4; experiment: Growth of spontaneously proliferating cell line Molt-4; type: cell-based; conditions: p56^lck negative human T lymphoma cell line
Source text: Molt-4 is a human T lymphoma cell line, p56^lck negative, and Jurkat is a human T cell line, p56^lck positive, that will grow spontaneously in the absence of exogenous stimuli.

For C[C@@H](N)C(=O)N[C@@H](CO)C(=O)N[C@H](C(=O)N[C@H](C(=O)N[C@H](C(=O)N[C@@H](CC(N)=O)C(=O)N[C@@H](Cc1ccc(O)cc1)C(=O)N[C@H](C(N)=O)[C@@H](C)O)[C@@H](C)O)[C@@H](C)O)[C@@H](C)O [Peptide T, D-Ala-Ser-Thr-Thr-Thr-Asn-Tyr-Thr-NH2], the “agonist activity on human monocyte chemotaxis” value [1] is listed as “potent agonists”, the malaise ([2]; 4 and 8 weeks) is listed as “statistacally significant” and the “forgetfulness and slowness in thinking” value ([2]; human, in vivo) is listed as “trend towards improvement”. The “Mean improvements in measures of energy” value ([2]; week 12, all three instruments) was “exceeded 2 standard deviations”, the “physical discomfort, mental health and health distress (MS-modified MOS-HIV)” value ([2]; weeks 4, 8 and 12) was “either a trend or statistically significant improvement” and the “energy, general quality of life, well-being and unweighted summary score (MS-modified MOS-HIV)” value ([2]; weeks 4, 8 and 12 vs baseline, two-tailed paired t-tests) was “Improvement was statistically significant”. The peak plasma concentrations [3] was 55 nM, the “neurotoxicity of CSF from a patient with AIDS dementia” value ([4]; CSF at 1:100,000 dilution, 44-49% killing without peptide) was “inhibited” and the gp120-induced neurotoxicity ([4]; cultures of mouse foetal hippocampal neurons) was “completely, antagonised”. For the same molecule, the “intellectual and motor functioning” value ([5]; Example 1: person with MS, 8.5 mg subcutaneously daily, within a few weeks, sustained over 6 months) was “marked symptomatic improvement”, the visual acuity bilaterally ([5]; Example 2: person, optic neuritis secondary to MS, six days after start, before therapy 20/300 bilaterally) was 21/30 and the “fatigue, ataxia and fine motor function after restarting” value ([5]; Example 3: after stopping and restarting Peptide T) was “remarkable improvement”. The “patient-reported symptoms after start of therapy” value ([5]; Example 3: person with MS, 8.5 mg subcutaneously daily, within 1 to 2 weeks) was “subjective improvement”, the patient-reported symptoms ([5]; Example 4: person, 8.5 mg subcutaneously daily, within 10 days) was “increased energy and intellectual function, and improved vision” and the “PBMC-mediated inhibition of Molt-4 proliferation” value [6] was “remains unaffected”. For the same molecule, the “Proliferation Index ± S.D.” value ([7]; Peptide T added Daily, 10^-7 Mol/L) was 1.83 ± 0.36, the “Proliferation Index ± S.D.” value ([7]; Peptide T added Daily, 10^-9 Mol/L) was 0.98 ± 0.16 and the “Proliferation Index ± S.D.” value ([7]; Peptide T added Daily, 10^-11 Mol/L) was 1.56 ± 0.14. The “Proliferation Index ± S.D.” value ([7]; Peptide T added Daily, 10^-13 Mol/L) was 1.38 ± 0.51, the “Proliferation Index ± S.D.” value ([7]; Peptide T added Daily, 10^-15 Mol/L) was 1.56 ± 0.61 and the “Proliferation Index ± S.D.” value ([7]; Peptide T added Daily, 10^-17 Mol/L) was 1.60 ± 0.60. For the same molecule, the “Proliferation Index ± S.D.” value ([7]; Peptide T added Daily, 10^-19 Mol/L) was 2.27 ± 1.09, the “Proliferation Index ± S.D.” value ([7]; Peptide T added Day 1, 10^-7 Mol/L) was 4.02 ± 0.78 and the “Proliferation Index ± S.D.” value ([7]; Peptide T added Day 1, 10^-9 Mol/L) was 1.91 ± 0.46. For the same molecule, the “Proliferation Index ± S.D.” value ([7]; Peptide T added Day 1, 10^-11 Mol/L) was 5.35 ± 1.46, the “Proliferation Index ± S.D.” value ([7]; Peptide T added Day 1, 10^-13 Mol/L) was 5.46 ± 1.37 and the “Proliferation Index ± S.D.” value ([7]; Peptide T added Day 1, 10^-15 Mol/L) was 5.56 ± 0.60. The “Proliferation Index ± S.D.” value ([7]; Peptide T added Day 1, 10^-17 Mol/L) was 3.99 ± 0.18, the “Proliferation Index ± S.D.” value ([7]; Peptide T added Day 1, 10^-19 Mol/L) was 6.15 ± 2.59 and the “growth of Molt-4 cell line” value [8] was “did not significantly affect”.
